The target in assay [1] is rabbit indoleamine 2,3-dioxygenase (rIDO). The note with it: read-out: Kd^eq, cited from earlier work.
Assay [2] has as its target TDO (xcTDO). The note with it: read-out: Kd^eq, cited from earlier work.
For assay [3], the target named is T1, human indoleamine 2,3-dioxygenase (hIDO) (Homo sapiens, UniProt P14902). The note with it: L-Trp binding to ferric hIDO; cited from earlier work.
For assay [4], the target named is T1, human indoleamine 2,3-dioxygenase (hIDO). In words: Stopped-flow binding kinetics.
Assay [5] has the same target. In words: Steady-state kinetics of hIDO. In kind it is biochemical.
Assay [6] deals with rabbit indoleamine 2,3-dioxygenase (rIDO). The note with it: cited from earlier work.
The target in assay [7] is T1, human indoleamine 2,3-dioxygenase (hIDO). The assay is described as follows: Equilibrium ligand/substrate titration by optical absorption. In kind it is binding. The note with it: ferrous hIDO at 50 μM L-Trp, on the basis of Kd 400 μM.
The target is the same in assay [8]. The note with it: cited from earlier work.
Assay [9] concerns TDO (xcTDO). The note with it: cited from earlier work.

The source of these data is paper PMC5450916 (Biochemistry, 2010).

Structures are written as SMILES. “And” between values parts separate entries of the source, which are not always exact repeats. Identical values can stand only once. Like-named read-outs stand apart in the source and are kept apart here.

A word on the Kd: it is the free concentration of one partner at which half of the binding sites on the other are occupied at equilibrium, for simple one-to-one binding. As usually defined, the Km is the substrate concentration at which the rate is half of its maximum.

T1 sequence (P14902 whole entry): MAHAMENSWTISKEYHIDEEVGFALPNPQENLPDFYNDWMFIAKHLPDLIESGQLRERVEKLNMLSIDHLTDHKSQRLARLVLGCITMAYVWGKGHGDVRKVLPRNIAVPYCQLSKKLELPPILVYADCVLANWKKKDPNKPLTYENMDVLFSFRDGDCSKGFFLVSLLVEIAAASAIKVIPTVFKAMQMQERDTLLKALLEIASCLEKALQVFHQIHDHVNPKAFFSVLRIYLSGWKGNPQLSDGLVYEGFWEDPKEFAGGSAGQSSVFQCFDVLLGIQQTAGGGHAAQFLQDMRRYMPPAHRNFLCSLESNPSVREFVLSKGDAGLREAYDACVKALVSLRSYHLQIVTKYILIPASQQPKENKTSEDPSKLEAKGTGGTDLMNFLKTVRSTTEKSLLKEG

In the case of `N[C@@H](Cc1c[nH]c2ccccc12)C(=O)O` [L-Trp, L-Tryptophan], the Kd in assay [1] (rIDO Fe^2+ + Trp) is 13 µM; in assay [1] (rIDO Fe^3+ + Trp, ref 16) it was 5800 µM; in assay [1] (rIDO Fe^3+ + Trp, ref 35) it was 30000 µM; in assay [1] (rIDO Fe^3+–CN^− + Trp, ref 34) it was 10 to 20 µM; in assay [1] (rIDO Fe^3+–CN^− + Trp, ref 35), 16 µM; in [2] (TDO Fe^2+ + Trp) it was 4.12 µM. In addition, the equilibrium dissociation constant (Kd) in assay [2] (TDO Fe^3+ + Trp) is 3800 µM; in assay [4] (Fe^3+ + Trp, calculated from kinetic constants) it was 1000 µM; in assay [4] (Fe^3+–CN^− + Trp, calculated from koff/kon) it was 23 µM. Besides, the “kon, previously published” value in [3] was 1.55e+10 M⁻¹ s⁻¹. Also, in assay [4] (cyanide-bound ferric hIDO, higher L-Trp concentrations, stopped-flow), the “binding of L-Trp to the second binding site” value is reported as “too fast to be measured”. Also, the “ΔΔG of L-Trp binding” value in [4] (effect of prebinding of cyanide, tighter substrate binding) is -2.3 kcal/mol. In addition, the “retardation of L-Trp dissociation by prebinding of cyanide” value in [4] (koff, cyanide-bound vs ligand-free ferric hIDO) is listed as 2 fold. Also, in [4] (kon, cyanide-bound vs ligand-free ferric hIDO), the “facilitation of L-Trp binding by prebinding of cyanide” value was ~ 22 fold and 22 fold. The compound also came in with an observed rate constant in assay [4] (ligand-free ferric hIDO with 0.75 mM L-Trp, trace at 403 nm, 20 °C) of 10 s⁻¹. In addition, the “Km of L-Trp lower than Kd of L-Trp” value in assay [5] (Km (15 μM) vs Kd (0.4 mM) of ligand-free ferrous hIDO) is ~ 27 fold and 27 fold. In assay [5] (Km (~15 μM) vs literature Kd (0.53 mM) of ligand-free hIDO), the “Km lower than Kd (L-Trp)” value is given as ~ 40 fold. For the same compound, the Km is 12 µM in assay [6]; 15 ± 2 µM in assay [8] (read-out: Km of L-Trp, hIDO steady-state reactions); 114 µM in assay [9]. The “enzyme in the substrate-bound form” value in assay [7] is given as ~ 5%. For the same compound, the “self-inhibition (substrate inhibition) constant Ksi” value in assay [8] (hIDO steady-state turnover) was 0.17 mM.
